Reference: publication PMC9309159, “Identification of heptapeptides targeting a lethal bacterial strain in septic mice through an integrative approach” (Signal Transduction and Targeted Therapy, 2022)

Experiments:
E. coli MSI001 = assay: Biofilm detection (crystal violet, A570); format: cell-based, Escherichia coli; conditions: peptide 0-4 μmol/L, 37 °C, 3 days, A570, n = 5
Protocol: Fig. 6 Antimicrobial activity of the C7C-LL37 fusion peptides in vitro. a Primary structures and physical properties of the C7C and LL37 fusion peptides, including LL37, VTK-LL37, LL37-VTK, KYY-LL37 and LL37-KYY, ISS-LL37, INS-LL37. Net charge, PI and GRAVY values were acquired as described above. b Inhibitory effect of C7C-LL37 fusion peptides on bacterial growth. A C7C-LL37 fusion peptide or LL37 alone was added to the cultured bacterial strain MSI001 (1 × 10^3 CFU) at final concentrations of 0.25 μmol/L, 0.5 μmol/L and 1 μmol/L. Sterile DPBS was used as control. After incubation with the C7C-LL37 or LL37 peptides at 37 °C for different times (1-8 h), bacterial colonies were counted. n = 3. *P < 0.05, VTK-LL37 group compared to LL37 group; ^#P < 0.05, LL37-VTK group compared to LL37 group. c, d Inhibitory effect of VTK-LL37 on biofilm formation. […] The biofilm was stained with 1% crystal violet, and the precipitates were dissolved in 95% ethanol, followed by detection of absorbance at 570 nm (A570) (c). […]
When the OD600 of the bacterial suspension reached 1.0, the bacteria were transferred to a 96-well plate, and the VTK-LL37 or LL37 peptide was added at final concentrations of 0.5 μmol/L, 1 μmol/L, 2 μmol/L, or 4 μmol/L, followed by incubation at 37 °C. […] Bacterial biofilms were observed by microscopy and quantitated by spectrometry. […]

[1] = tested on: Pseudomonas aeruginosa (ATCC27853); assay: Growth of Pseudomonas aeruginosa; format: cell-based; conditions: peptide 1 μmol/L, 37°C, 3 hours, colony count, n=3
Protocol: Pseudomonas aeruginosa (ATCC27853) was purchased from American Type Culture Collection (ATCC) and cultured in Luria Broth (LB) medium with shaking at 37 °C. For construction of ampicillin-resistant MSI001 strain (MSI001-Amp^r), the pET14b plasmid carrying Amp^r marker gene was introduced into the wild type MSI001 strain. The MSI001-Amp^r strain was cultured in LB medium supplemented with Ampicillin of 100 µg/ml at 37 °C.
Figure S4. Inhibitory effect of LL37 and VTK-LL37 fusion peptides on bacterial growth. a Effect of VTK-LL37 on the growth of Ampicillin resistant (Amp^r) MSI001 bacteria. The bacterial strain MSI001 was transfected with pET14b plasmid to produce an Ampicillin resistant (Amp^r) MSI001 strain. The VTK-LL37 or LL37 peptide was added to the cultured MSI001-Amp^r bacteria (1×10^3 CFU/ml) with a final concentration of 1 μmol/L. After incubation with the VTK-LL37 or LL37 peptides at 37°C for 3 hours, bacterial colonies were counted. b Effect of VTK-LL37 on the growth of Pseudomonas aeruginosa. The bacterial colonies of Pseudomonas aeruginosa were counted as above. […]

Sequence: CVTKLGSLCVPGVGLLGDFFRKSKEKIGKEFKRIVQRIKDFLRNLVPRTES [VTK-LL37]
- inhibition of biofilm formation (E. coli MSI001): inhibited biofilm formation of E. coli MSI001, and VTK-LL37 had a stronger inhibition of biofilm formation at a low dose than LL37 alone
- inhibitory effect on growth of Pseudomonas aeruginosa [1]: showed inhibitory effect on the growth of Pseudomonas aeruginosa
